Like-named read-outs stand apart in the source and are kept apart here.
Molecular target: T1, human PDE2A1 (Homo sapiens, UniProt O00408)
T1 construct: GST; purchased BPS Bioscience (San Diego, Calif.) 60020; host or cells: insect cells
Assay: PDE2 IMAP FP inhibition assay, human enzyme (PDE selectivity panel format)
Assay type: biochemical
In short: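 GST-tagged human PDE2A1 from insect cells, run at room temperature in 10 mM Tris pH 7.2, 10 mM MgCl2, 1 mM DTT with 50 nM FAM-cAMP plus 1000 nM cGMP for 60 min. IMAP fluorescence polarization read-out; apparent Ki derived using apparent KM 10,000 nM.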

[1] = Lab B, read-out: Human PDE2 Ki (nM) Lab B
[2] = Lab A, read-out: Human PDE2 Ki (nM) Lab A

T1 sequence (O00408 1-920 isoform O00408-2): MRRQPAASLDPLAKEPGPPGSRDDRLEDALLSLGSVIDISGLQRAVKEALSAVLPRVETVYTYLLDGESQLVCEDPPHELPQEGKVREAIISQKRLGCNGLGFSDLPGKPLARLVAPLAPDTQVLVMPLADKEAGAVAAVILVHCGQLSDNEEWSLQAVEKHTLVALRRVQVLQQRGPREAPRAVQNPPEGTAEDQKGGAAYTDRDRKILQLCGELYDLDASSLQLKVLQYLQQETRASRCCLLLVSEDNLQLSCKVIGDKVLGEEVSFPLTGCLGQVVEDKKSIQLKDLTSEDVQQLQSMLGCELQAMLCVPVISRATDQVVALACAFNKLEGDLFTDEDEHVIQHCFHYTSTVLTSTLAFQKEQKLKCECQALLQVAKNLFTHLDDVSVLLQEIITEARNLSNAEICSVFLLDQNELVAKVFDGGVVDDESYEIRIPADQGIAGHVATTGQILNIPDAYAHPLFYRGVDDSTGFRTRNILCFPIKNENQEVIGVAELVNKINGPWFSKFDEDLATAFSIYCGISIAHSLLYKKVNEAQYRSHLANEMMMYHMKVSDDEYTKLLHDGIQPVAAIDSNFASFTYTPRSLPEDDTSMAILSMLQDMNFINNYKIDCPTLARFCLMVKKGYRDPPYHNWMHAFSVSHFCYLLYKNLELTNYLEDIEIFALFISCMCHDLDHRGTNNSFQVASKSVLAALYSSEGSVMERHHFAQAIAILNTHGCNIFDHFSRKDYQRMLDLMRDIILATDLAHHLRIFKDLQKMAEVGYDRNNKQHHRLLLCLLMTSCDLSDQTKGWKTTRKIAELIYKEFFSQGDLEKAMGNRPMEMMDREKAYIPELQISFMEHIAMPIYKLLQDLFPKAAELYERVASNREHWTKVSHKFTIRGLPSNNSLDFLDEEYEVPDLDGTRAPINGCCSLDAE

Structure (SMILES)	Ki [1] [nM]	Ki [2] [nM]
CCC(c1ccc(C(F)(F)F)cc1)c1cnn(-c2cc(=O)[nH]c(C)n2)c1 (centres unmarked) [Example 129, 2-methyl-6-(4-(1-(4-(trifluoromethyl)phenyl)propyl)-1H-pyrazol-1-yl)pyrimidin-4(3H)-one]	141	
COc1ccc(Cc2nc(-c3cnn(C(C)c4ccc(C(F)(F)F)cc4F)c3)cc(=O)[nH]2)cc1 (single isomer, unassigned) [Example 139, (S)- or (R)-6-(1-(1-(2-fluoro-4-(trifluoromethyl)phenyl)ethyl)-1H-pyrazol-4-yl)-2-(4-methoxybenzyl)pyrimidin-4(3H)-one]	24.5	41.6
Cc1nc(-c2cc([C@H](C)c3ccc(C(F)(F)F)cc3)[nH]n2)cc(=O)[nH]1 (single isomer, unassigned) [Example 23]	19.4	
COc1cc(C(F)(F)F)ccc1[C@@H](C)n1cc(-c2cc(=O)[nH]c(C)n2)cn1 (single isomer, unassigned) [Example 2]	17.1	41.5
Cc1nc(-n2cc([C@](C)(O)c3ccc(C(F)(F)F)cc3F)cn2)cc(=O)[nH]1 (single isomer, unassigned) [Example 15]	11.7	
Cc1nc(-n2cc([C@H](CO)c3ccc(C(F)(F)F)cc3F)cn2)cc(=O)[nH]1 (single isomer, unassigned) [Example 19]	85	
Cc1nc(-n2cc([C@H](C)c3ccc(C(F)(F)F)cc3)cn2)cc(=O)[nH]1 (single isomer, unassigned) [Example 3]	40.3	
Cc1nc(-c2cnn(C(C)c3ccc(C(F)(F)F)cc3F)c2)cc(=O)[nH]1 (single isomer, unassigned) [Example 135, (R)- or (S)-6-(1-(1-(2-fluoro-4-(trifluoromethyl)phenyl)ethyl)-1H-pyrazol-4-yl)-2-methylpyrimidin-4(3H)-one]	91.9	
Cc1nc(-c2cnn(C(C)c3ccc(C(F)(F)F)cc3)c2C)cc(=O)[nH]1 (single isomer, unassigned) [Example 81, (R)- or (S)-2-methyl-6-(5-methyl-1-(1-(4-(trifluoromethyl)phenyl)ethyl)-1H-pyrazol-4-yl)pyrimidin-4(3H)-one]	194	
Cc1nc(-n2ccc([C@H](C)c3ccc(C(F)(F)F)cc3)n2)cc(=O)[nH]1 (single isomer, unassigned) [Example 6]	241	
COc1ccc(Cc2nc(-n3ccc(C(C)c4ccc(C(F)(F)F)cc4)n3)cc(=O)[nH]2)cc1OC (single isomer, unassigned) [Example 134, (R)- or (S)-2-(3,4-dimethoxybenzyl)-6-(3-(1-(4-(trifluoromethyl)phenyl)ethyl)-1H-pyrazol-1-yl)pyrimidin-4(3H)-one]	66.6	
Cc1nc(-c2cnn(C(C)c3ccc(C(F)(F)F)cc3Cl)c2)cc(=O)[nH]1 (single isomer, unassigned) [Example 83, (R)- or (S)-6-(1-(1-(2-chloro-4-(trifluoromethyl)phenyl)ethyl)-1H-pyrazol-4-yl)-2-methylpyrimidin-4(3H)-one]		5.1
Cc1nc(-c2cnn(C(C)c3ccc(C(F)(F)F)cc3F)c2)cc(=O)[nH]1 (single isomer, unassigned) [Example 136, (S)- or (R)-6-(1-(1-(2-fluoro-4-(trifluoromethyl)phenyl)ethyl)-1H-pyrazol-4-yl)-2-methylpyrimidin-4(3H)-one]	7.6	19.1
Cc1nc(-n2cc(C3(C)OCc4cc(C(F)(F)F)ccc43)cn2)cc(=O)[nH]1 (single isomer, unassigned) [Example 27]	66.6	
Cc1nc(-c2cnn(C(C)c3ccc(C4CC4)cc3C)c2)cc(=O)[nH]1 (single isomer, unassigned) [Example 94, (S)- or (R)-6-(1-(1-(4-cyclopropyl-2-methylphenyl)ethyl)-1H-pyrazol-4-yl)-2-methylpyrimidin-4(3H)-one]		52.5
COc1ccc(Cc2nc(-n3cc(C(C)c4ccc(C(F)(F)F)cc4)cn3)cc(=O)[nH]2)cc1OC (centres unmarked) [Example 137, 2-(3,4-dimethoxybenzyl)-6-(4-(1-(4-(trifluoromethyl)phenyl)ethyl)-1H-pyrazol-1-yl)pyrimidin-4(3H)-one]	0.4	1

Reference: patent US10287269B2, “Pyrazolyl pyrimidinone compounds as PDE2 inhibitors” (Merck Sharp & Dohme Corp., priority 2015, dated 2019)
